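GI50 = concentration required for 50% inhibition of growth. TGI: total growth inhibition.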
Legend:
Assay in all cases: DTP human tumour cell line panel, 384-well format
[1] = tested on: A498 renal
[2] = tested on: A549 NSCLC
[3] = tested on: ACHN renal
[4] = tested on: BT-549 breast
[5] = tested on: CAKI-1 renal
[6] = tested on: COLO 205 colon
[7] = tested on: DU-145 prostate
[8] = tested on: EKVX NSCLC
[9] = tested on: HCC-2998 colon
[10] = tested on: HCT-116 colon
[11] = tested on: HCT-15 colon
[12] = tested on: HL-60(TB) leukemia
[13] = tested on: HOP-62 NSCLC
[14] = tested on: HOP-92 NSCLC
[15] = tested on: HS 578T breast
[16] = tested on: HT29 colon
[17] = tested on: IGROV1 ovarian
[18] = tested on: KM12 colon
[19] = tested on: LOX IMVI melanoma
[20] = tested on: M14 melanoma
[21] = tested on: MALME-3M melanoma
[22] = tested on: MCF7 breast
[23] = tested on: MDA-MB-231 breast
[24] = tested on: MDA-MB-435 melanoma
[25] = tested on: MDA-MB-468 breast
[26] = tested on: MOLT-4 leukemia
[27] = tested on: NCI-H226 lung
[28] = tested on: NCI-H23 lung
[29] = tested on: NCI-H322M lung
[30] = tested on: NCI-H460 NSCLC
[31] = tested on: NCI-H522 lung
[32] = tested on: NCI/ADR-RES ovarian
[33] = tested on: OVCAR-3 ovarian
[34] = tested on: OVCAR-4 ovarian
[35] = tested on: OVCAR-5 ovarian
[36] = tested on: OVCAR-8 ovarian
[37] = tested on: PC-3 prostate
[38] = tested on: RPMI-8226 leukemia
[39] = tested on: RXF 393 renal
[40] = tested on: SF-268 CNS
[41] = tested on: SF-295 CNS
[42] = tested on: SF-539 CNS
[43] = tested on: SK-MEL-28 melanoma
[44] = tested on: SK-MEL-5 melanoma
[45] = tested on: SK-OV-3 ovarian
[46] = tested on: SN12C renal
[47] = tested on: SNB-19 CNS
[48] = tested on: SNB-75 CNS
[49] = tested on: SR leukemia
[50] = tested on: T-47D breast
[51] = tested on: TK-10 renal
[52] = tested on: U251 glioblastoma
[53] = tested on: UACC-257 melanoma
[54] = tested on: UACC-62 melanoma

SMILES: Cc1ccc(F)c(NC(=O)Nc2ccc(-c3cccc4[nH]nc(N)c34)cc2)c1
- GI50 [1]: 2.03 µM
- TGI [1]: 4.58 µM
- GI50 [2]: 3.14 µM
- TGI [2]: 9.44 µM
- GI50 [3]: 2.13 µM
- TGI [3]: 5.05 µM
- GI50 [4]: 1.99 µM
- TGI [4]: 3.79 µM
- GI50 [5]: 2.84 µM
- TGI [5]: 7.73 µM
- GI50 [6]: 1.93 µM
- TGI [6]: 4.29 µM
- GI50 [7]: 1.73 µM
- TGI [7]: 3.55 µM
- GI50 [8]: 2.13 µM
- TGI [8]: 4.53 µM
- GI50 [9]: 1.27 µM
- TGI [9]: 2.65 µM
- GI50 [10]: 1.99 µM
- TGI [10]: 4.6 µM
- GI50 [11]: 1.82 µM
- TGI [11]: 4.3 µM
- GI50 [12]: 1.27 µM
- TGI [12]: 2.54 µM
- GI50 [13]: 1.94 µM
- TGI [13]: 5.5 µM
- GI50 [14]: 3.96 µM
- TGI [14]: 12.6 µM
- GI50 [15]: 2.19 µM
- TGI [15]: 5.31 µM
- GI50 [16]: 1.77 µM
- TGI [16]: 4.58 µM
- GI50 [17]: 1.78 µM
- TGI [17]: 3.79 µM
- GI50 [18]: 0.432 µM
- TGI [18]: 3.87 µM
- GI50 [19]: 1.85 µM
- TGI [19]: 3.32 µM
- GI50 [20]: 1.96 µM
- TGI [20]: 4.86 µM
- GI50 [21]: 1.93 µM
- TGI [21]: 4.24 µM
- GI50 [22]: 1.08 µM
- TGI [22]: 4.28 µM
- GI50 [23]: 3.83 µM
- TGI [23]: 15.2 µM
- GI50 [24]: 2.16 µM
- TGI [24]: 4.25 µM
- GI50 [25]: 1.8 µM
- TGI [25]: 3.69 µM
- GI50 [26]: 1.91 µM
- TGI [26]: 3.35 µM
- GI50 [27]: 2.44 µM
- TGI [27]: 9.13 µM
- GI50 [28]: 1.71 µM
- TGI [28]: 3.4 µM
- GI50 [29]: 2.15 µM
- TGI [29]: 5.5 µM
- GI50 [30]: 1.61 µM
- TGI [30]: 3.02 µM
- GI50 [31]: 2.05 µM
- TGI [31]: 3.54 µM
- GI50 [32]: 2.43 µM
- TGI [32]: 9.01 µM
- GI50 [33]: 1.75 µM
- TGI [33]: 3.25 µM
- GI50 [34]: 1.6 µM
- TGI [34]: 3.98 µM
- GI50 [35]: 1.82 µM
- TGI [35]: 3.89 µM
- GI50 [36]: 2.01 µM
- TGI [36]: 9.04 µM
- GI50 [37]: 2.31 µM
- TGI [37]: 4.82 µM
- GI50 [38]: 1.76 µM
- TGI [38]: 3.16 µM
- GI50 [39]: 1.56 µM
- TGI [39]: 3.59 µM
- GI50 [40]: 2.3 µM
- TGI [40]: 7.63 µM
- GI50 [41]: 3.17 µM
- TGI [41]: 10.5 µM
- GI50 [42]: 1.44 µM
- TGI [42]: 3.49 µM
- GI50 [43]: 4.44 µM
- TGI [43]: 15.6 µM
- GI50 [44]: 1.34 µM
- TGI [44]: 2.67 µM
- GI50 [45]: 2.42 µM
- TGI [45]: 11.6 µM
- GI50 [46]: 1.26 µM
- TGI [46]: 2.89 µM
- GI50 [47]: 3.26 µM
- TGI [47]: 8.97 µM
- GI50 [48]: 2.67 µM
- TGI [48]: 9.2 µM
- GI50 [49]: 1.49 µM
- TGI [49]: 2.82 µM
- GI50 [50]: 2.85 µM
- TGI [50]: 14.2 µM
- GI50 [51]: 2.07 µM
- TGI [51]: 5.48 µM
- GI50 [52]: 2.27 µM
- TGI [52]: 4.83 µM
- GI50 [53]: 1.83 µM
- TGI [53]: 3.95 µM
- GI50 [54]: 2.31 µM
- TGI [54]: 5.7 µM

— PubChem BioAssay (NCI)
